According to paper PMC9578396, “Intrinsic Antibacterial Activity of Xeruborbactam In Vitro: Assessing Spectrum and Mode of Action” (Antimicrobial Agents and Chemotherapy, 2022):
Where two headings read alike, the source gives them in different places.

Tests used:
[1] = test system: K. pneumoniae strain KPM1026a; test: Fluorescence microscopy, cellular morphology; format: cell-based, Klebsiella pneumoniae; details: treated at 1× and 2× MIC, 1 to 2 h, 30°C
Description: (§1) Single colonies of K. pneumoniae strain KPM1026a, A. baumannii strain ATCC 17978, and P. aeruginosa strain PAM1154 were picked from LB agar plates, inoculated in cation-adjusted Mueller-Hinton broth (CA-MHB), and incubated overnight at 30°C with rolling. Overnight cultures were diluted into fresh CA-MHB and incubated at 30°C, with rolling, until they reached an OD600 of ≈0.12 to 0.15 (equivalent to ~2 × 10^8 CFU/mL). Samples were then treated with compounds and incubated at 30°C, with rolling. After 1 or 2 h of treatment, cells were collected and stained with a dye mix containing FM4-64 (1 μg/mL), DAPI (4′,6-diamidino-2-phenylindole) (2 μg/mL), and SYTOX green (0.5 μM) (Molecular Probes, Invitrogen, or Thermo Fisher Scientific). Cells were transferred onto an agarose pad containing 1.2% agarose and 20% LB medium for microscopy. Microscopy was performed as previously described ([34]).

Acinetobacter baumannii = test: Broth microdilution MIC (CLSI), Acinetobacter baumannii; format: cell-based; details: Acinetobacter baumannii
Method in brief: (§2)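 MICs by CLSI broth microdilution in in-house panels. Strains tested were engineered strains carrying porin and efflux mutation combinations, KPC-producing clinical isolates and derivatives cured of KPC plasmids, and KPC-producing clinical isolates enriched for porin mutations.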

Klebsiella pneumoniae = test: microbe, parasite or virus in culture; format: cell-based
Method in brief: as §2

[2] = test system: A. baumannii strain ATCC 17978; test: Fluorescence microscopy, cellular morphology; format: cell-based, Acinetobacter baumannii; details: xeruborbactam, meropenem 1× and 2× MIC; aztreonam 2× MIC; amdinocillin 2 μg/mL
Description: as §1

Pseudomonas aeruginosa = test: Broth microdilution MIC (CLSI), Pseudomonas aeruginosa; format: cell-based
Method in brief: as §2

Escherichia coli = test: Broth microdilution MIC (CLSI), Escherichia coli; format: cell-based
Method in brief: as §2

[3] = ATCC17978, strain ATCC 17978 (Fig. 6), read-out: MIC

SMILES: CC1(C)S[C@@H]2[C@H](/N=C/N3CCCCCC3)C(=O)N2[C@H]1C(=O)O [Mecillinam]
- cellular morphology [1]: cell rounding
- MIC (Acinetobacter baumannii; [3]): 128 µg/mL
- MIC (Acinetobacter baumannii; ATCC17978, strain ATCC 17978, read-out: MIC): > 256 µg/mL
- MIC (Klebsiella pneumoniae; KPM1026a (no beta-lactamase), xeruborbactam 0 µg/ml): 0.25 µg/mL
- MIC (Klebsiella pneumoniae; KPM1026a, xeruborbactam 2 µg/ml): 0.25 µg/mL
- MIC (Klebsiella pneumoniae; KPM1026a, xeruborbactam 4 µg/ml): 0.125 µg/mL
- MIC (Klebsiella pneumoniae; KPM1026a, xeruborbactam 8 µg/ml): 0.06 µg/mL
- MIC (Klebsiella pneumoniae; Klebsiella pneumoniae, KPM1026a, alone, read-out: MIC): 0.25 µg/mL
- MIC (Klebsiella pneumoniae; Klebsiella pneumoniae, KPM1026a, parent, read-out: MIC): 0.25 µg/mL
- MIC (Klebsiella pneumoniae; Klebsiella pneumoniae, KPM3532 (TolQ::M189K), alone): > 64 µg/mL
- MIC (Klebsiella pneumoniae; Klebsiella pneumoniae, KPM3532, TolQ::M189K): > 64 µg/mL
- MIC (Klebsiella pneumoniae; Klebsiella pneumoniae, KPM3534 (TolQ::S31F), alone): > 64 µg/mL
- MIC (Klebsiella pneumoniae; Klebsiella pneumoniae, KPM3534, TolQ::S31F): > 64 µg/mL
- MIC (Klebsiella pneumoniae; Klebsiella pneumoniae, KPM4235, TolQ::IP(183–1844)PR): > 64 µg/mL
- MIC (Klebsiella pneumoniae; Klebsiella pneumoniae, KPM4236, TolQ::TAA at aa 103): > 64 µg/mL
- MIC (Klebsiella pneumoniae; Klebsiella pneumoniae, KPM4238, TolQ::S25F): > 64 µg/mL
- MIC (Klebsiella pneumoniae; Klebsiella pneumoniae, KPM4239, TolQ::S28F): > 64 µg/mL
- MIC (Klebsiella pneumoniae; Klebsiella pneumoniae, KPM4240, TolQ::S25Y): > 64 µg/mL
- MIC (Klebsiella pneumoniae; Klebsiella pneumoniae, strain KPM1026a measured at 30°C (Fig. 6), read-out: MIC): 128 µg/mL
- cellular morphology [2]: bacterial cell rounding but not swelling
- MIC (Pseudomonas aeruginosa; Pseudomonas aeruginosa, strain PAM1154 (Fig. 6), read-out: MIC): 128 µg/mL

SMILES: C[C@H]1[C@H](NC(=O)/C(=N\OC(C)(C)C(=O)O)c2csc(N)n2)C(=O)N1S(=O)(=O)O [Aztreonam]
- MIC (Escherichia coli; EC1078, PBP2 same as MG1655, PBP3 I332V): 64
- MIC (Escherichia coli; EC1081, PBP2 same as MG1655, PBP3 Q227H): 64
- MIC (Escherichia coli; EC1085, PBP2 T331P, PBP3 A233T I332V): 2
- MIC (Escherichia coli; EC1088, PBP2 A308G, PBP3 same as MG1655): > 64
- MIC (Escherichia coli; EC1097, PBP2 M574I, PBP3 Q227H): > 64
- MIC (Escherichia coli; EC1098, PBP2 V217M, PBP3 YRIN ins, I532L): 64
- MIC (Escherichia coli; EC1103, PBP2 same as MG1655, PBP3 YRIN ins, Q227H, E349K, I532L): 32
- MIC (Escherichia coli; EC1105, PBP2 A543T, PBP3 YRIN ins, Q227H, E349K, I532L): > 64
- MIC (Escherichia coli; EC1119, PBP2 same as MG1655, PBP3 YRIN ins, Q227H, E349K, I532L): > 64
- MIC (Escherichia coli; EC1121, PBP2 V217M, PBP3 YRIN ins, E349K, I532L): > 64
- MIC (Escherichia coli; Escherichia coli, strain ECM5497, wild type, read-out: MIC): 0.03 µg/mL
- MIC (Escherichia coli; Escherichia coli, strain ECM6001, ΔacrB): 0.03 µg/mL
- MIC (Acinetobacter baumannii; AB1007 (no beta-lactamase), xeruborbactam 0 µg/ml, read-out: MIC): 32 µg/mL
- MIC (Acinetobacter baumannii; AB1007, xeruborbactam 2 µg/ml, read-out: MIC): 32 µg/mL
- MIC (Acinetobacter baumannii; AB1007, xeruborbactam 4 µg/ml, read-out: MIC): 16 µg/mL
- MIC (Acinetobacter baumannii; AB1007, xeruborbactam 8 µg/ml, read-out: MIC): 4 µg/mL
- MIC (Acinetobacter baumannii; [3]): 32 µg/mL
- MIC (Acinetobacter baumannii; strain AB1007, wild type, read-out: MIC): 32 µg/mL
- MIC (Acinetobacter baumannii; strain ACM1013, ΔadeIJK): 1 µg/mL
- MIC (Acinetobacter baumannii; strain ACM1014, ΔadeABC): 16 µg/mL
- MIC (Acinetobacter baumannii; strain ACM1015, ΔadeIJK ΔadeABC): 1 µg/mL
- MIC (Acinetobacter baumannii; strain ACM1027, adeN (AdeIJK overexpression)): 64 µg/mL
- MIC (Acinetobacter baumannii; strain ACM1030, adeS (AdeABC overexpression)): 16 µg/mL
- cellular morphology [2]: increase in cell length
- MIC (Pseudomonas aeruginosa; PAM1154 (oprM::Hg), xeruborbactam 0 µg/ml): 0.5 µg/mL
- MIC (Pseudomonas aeruginosa; Pseudomonas aeruginosa, strain 1089003, alone, read-out: MIC): 0.5 µg/mL
- MIC (Pseudomonas aeruginosa; Pseudomonas aeruginosa, strain 1097436, alone, read-out: MIC): 64 µg/mL
- MIC (Pseudomonas aeruginosa; Pseudomonas aeruginosa, strain 1098916, alone, read-out: MIC): 0.5 µg/mL
- MIC (Pseudomonas aeruginosa; Pseudomonas aeruginosa, strain 1104168, alone, read-out: MIC): 1 µg/mL
- MIC (Pseudomonas aeruginosa; Pseudomonas aeruginosa, strain 1104284, alone, read-out: MIC): 0.5 µg/mL
- MIC (Pseudomonas aeruginosa; Pseudomonas aeruginosa, strain 1106973, alone, read-out: MIC): 2 µg/mL
- MIC (Pseudomonas aeruginosa; Pseudomonas aeruginosa, strain 1109744, alone, read-out: MIC): 0.5 µg/mL
- MIC (Pseudomonas aeruginosa; Pseudomonas aeruginosa, strain 1113238, alone, read-out: MIC): 32 µg/mL
- MIC (Pseudomonas aeruginosa; Pseudomonas aeruginosa, strain 1113634, alone, read-out: MIC): 4 µg/mL
- MIC (Pseudomonas aeruginosa; Pseudomonas aeruginosa, strain 1116835, alone, read-out: MIC): 0.5 µg/mL
- MIC (Pseudomonas aeruginosa; Pseudomonas aeruginosa, strain 1116849, alone, read-out: MIC): 2 µg/mL
- MIC (Pseudomonas aeruginosa; Pseudomonas aeruginosa, strain 1118234, alone, read-out: MIC): 32 µg/mL
- MIC (Pseudomonas aeruginosa; Pseudomonas aeruginosa, strain 1119418, alone, read-out: MIC): 32 µg/mL
- MIC (Pseudomonas aeruginosa; Pseudomonas aeruginosa, strain 1125954, alone, read-out: MIC): 1 µg/mL
- MIC (Pseudomonas aeruginosa; Pseudomonas aeruginosa, strain 1125996, alone, read-out: MIC): > 64 µg/mL
- MIC (Pseudomonas aeruginosa; Pseudomonas aeruginosa, strain 1126521, alone, read-out: MIC): 0.5 µg/mL
- MIC (Pseudomonas aeruginosa; Pseudomonas aeruginosa, strain 1126957, alone, read-out: MIC): > 64 µg/mL
- MIC (Pseudomonas aeruginosa; Pseudomonas aeruginosa, strain 1126982, alone, read-out: MIC): 0.5 µg/mL
- MIC (Pseudomonas aeruginosa; Pseudomonas aeruginosa, strain 1128636, alone, read-out: MIC): 2 µg/mL
- MIC (Pseudomonas aeruginosa; Pseudomonas aeruginosa, strain 1128674, alone, read-out: MIC): 4 µg/mL
- MIC (Pseudomonas aeruginosa; Pseudomonas aeruginosa, strain 1130447, alone, read-out: MIC): > 64 µg/mL
- MIC (Pseudomonas aeruginosa; Pseudomonas aeruginosa, strain PAM1020, wild type, read-out: MIC): 4 µg/mL
- MIC (Pseudomonas aeruginosa; Pseudomonas aeruginosa, strain PAM1032, nalB (MexAB-OprM overexpression)): 16 µg/mL
- MIC (Pseudomonas aeruginosa; Pseudomonas aeruginosa, strain PAM1033, nfxB (MexCD-OprJ overexpression)): 1 µg/mL
- MIC (Pseudomonas aeruginosa; Pseudomonas aeruginosa, strain PAM1034, nfxC (MexEF-OprN overexpression)): 4 µg/mL
